# Values quoted from earlier work as cited in patent US20170080084A1, “OIL/SURFACTANT MIXTURES FOR SELF-EMULSIFICATION” (priority 2014, published 2017).
# Settings: readily available values
row,Compound,HLB
1,Sorbitan monooleate,4.3
2,CCCCCCCCCCCCOS(=O)(=O)[O-].[Na+] [SDS],40
3,polyoxyethylene (10) lauryl ether,17
4,polyoxyethylene sorbitan monooleate [polysorbate 80],15
5,polyoxyethylene cetostearyl ether,13.5
